Measurements published in article PMC6385020 (Molecules, 2019).

Key:
[1] = tested on: 21CTA (DNA, G4) AGGGCTAGGGCTAGGGCTAGGG; assay: G4-FID, TO-PRO-3 displacement; settings: 100 mM KCl; 10 mM lithium cacodylate pH 7.3, 1% DMSO; TO-PRO-3 displaced; 1 µM compound, 0.25 µM DNA
[2] = tested on: CEB25-WT (DNA, G4) AAGGGTGGGTGTAAGTGTGGGTGGGT; assay: G4-FID, TO-PRO-3 displacement; settings: 100 mM KCl; 10 mM lithium cacodylate pH 7.3, 1% DMSO; TO-PRO-3 displaced; 1 µM compound, 0.25 µM DNA
[3] = tested on: 22AG (DNA, G4) AGGGTTAGGGTTAGGGTTAGGG; assay: G4-FID, TO-PRO-3 displacement; settings: 100 mM KCl; 10 mM lithium cacodylate pH 7.3, 1% DMSO; TO-PRO-3 displaced; 1 µM compound, 0.25 µM DNA
[4] = tested on: c-myc (myc22) (DNA, G4) TGAGGGTGGGTAGGGTGGGTAA; assay: G4-FID, TO-PRO-3 displacement; settings: 100 mM KCl; 10 mM lithium cacodylate pH 7.3, 1% DMSO; TO-PRO-3 displaced; 1 µM compound, 0.25 µM DNA
[5] = tested on: c-myc* (DNA, G4) TGAGGGTGGGTAGGGTGGGTAA; assay: denaturing gel electrophoresis, 3'-exonuclease digestion; settings: 100 mM KCl or KClO4; covalent; platination mainly A21/A22, also A12/G13; 18 h, 32 °C, 10 µM DNA
[6] = tested on: F-21CTA-T (DNA, G4) AGGGCTAGGGCTAGGGCTAGGG; assay: FRET-melting; settings: 1 mM KCl, 99 mM LiCl; 10 mM lithium cacodylate pH 7.3; 1 µM compound, 0.2 µM DNA
[7] = tested on: F-myc-T (DNA, G4) TGAGGGTGGGTAGGGTGGGTAA; assay: FRET-melting; settings: 1 mM KCl, 99 mM LiCl; 10 mM lithium cacodylate pH 7.3; 1 µM compound, 0.2 µM DNA
[8] = tested on: F-CEB25-WT-T (DNA, G4) AGGGTGGGTGTAAGTGTGGGTGGGT; assay: FRET-melting; settings: 1 mM KCl, 99 mM LiCl; 10 mM lithium cacodylate pH 7.3; 1 µM compound, 0.2 µM DNA

`CN(C)c1ccc(/C=C/c2cc(-c3ccccn3)nc(-c3ccccn3)n2)cc1.[Cl-].[Cl][Pt+]` [Pt-vpym, Chloro-(E)-4-(2-(2,6-di(pyridin-2-yl)pyrimidin-4-yl)vinyl)-N,N-dimethylaniline-platinum(II) Chloride] was tested, and the “% TO-PRO-3 displacement” value [1] was ~ 30%, the “% TO-PRO-3 displacement” value [2] was ~ 30% and the “% TO-PRO-3 displacement” value [3] was ~ 30%. The “% TO-PRO-3 displacement” value [4] was ~ 30%.
In the case of `Cc1ccc(-c2cc(-c3ccccn3)nc(-c3ccccn3)c2)cc1.[Cl-].[Cl][Pt+]` [Pt-ttpy], the binding [5] is reported as “yes”, the ΔTm [6] is reported as greater than 10 °C and the ΔTm [7] is reported as greater than 10 °C. For the same compound, the ΔTm [8] was greater than 10 °C.
